From patent US20230372433A1, “NANOPARTICLE FOR ANTI-CANCER PEPTIDES AND USES THEREOF” (KING'S COLLEGE LONDON, priority 2020, published 2023)
Read-outs that look alike come from different tables or passages of the source.

Experiments:
[1] = tested on: U2OS (human bone osteosarcoma); assay: MTT cytotoxicity assay, U2OS; type: cell-based; conditions: 72 hr
[2] = tested on: HMLER-shEcad (human breast cancer stem cell); assay: MTT cytotoxicity assay, HMLER-shEcad; type: cell-based; conditions: 72 hr, MTT; read-out: IC50 HMLER-shEcad
[3] = tested on: HEK293T (human embryonic kidney cell); assay: MTT cytotoxicity assay, HEK293T; type: cell-based; conditions: 72 hr, MTT; read-out: IC50 HEK293T
[4] = Tryptophan fluorescent binding assay, POPC vesicles; conditions: 50 μM peptide, PBS pH 7.4
Experimental: (§1) In brief, 50 μM peptides were fixed and incubated with titrated POPC vesicles (black) or 3POPC/1POPG vesicles (grey) at concentrations of 0, 12.5, 25, 50, 100, 250, 500, 1000, 2500, and 5000 μM in phosphate buffered saline (1X, pH 7.4). The lipid concentration that causes 50% peptide binding was determined using a tryptophan fluorescent binding assay and the values are shown as lipid per peptide.
(§2) The lipids 1-palmitoyl-2-oleoyl-sn-glycero-3-phosphocholine (POPC), 1-palmitoyl-2-oleoyl-snglycero-3-phospho-(1′-rac-glycerol) (POPG) were purchased from Avanti Polar Lipids and dissolved in chloroform. Large unilamellar vesicles (LUVs) were produced by extrusion through 100 nm pore filter using an extruder and filters purchased from Avanti Polar Lipids.
(§3) Peptides (50 μM) and POPC/POPG LUVs (600 μM) were prepared in 10 mM phosphate buffer (pH 7.0). The solutions were incubated and measured after 60 minutes. Excitation was fixed at 280 nm (slit 9 nm) and emission was collected from 300 to 450 nm (slit 9 nm). The spectra were recorded using a Synergy H1 Hybrid Multi-Mode Reader (FIG. 3A) and Cytation™ 5 Cell Imaging Multi-Mode Reader (FIG. 2) from BioTek and were averaged over 3 scans.
(§4) Table 3 illustrates the lipid concentration-induced 50% peptide binding onto a liposome. 50 μM peptide was fixed and incubated with titrated lipid (POPC vesicles or 3POPC/1POPG vesicles) at concentrations of 0, 12.5, 25, 50, 100, 250, 500, 1000, 2500, and 5000 μM in phosphate buffered saline (1X, pH 7.4). The lipid concentration that causes 50% peptide binding was determined using tryptophan fluorescent binding assay and the values are shown as lipid per peptide. IN-terminus is free, C-terminus: —W—NH2.

[5] = tested on: HMLER (human breast cancer bulk cell); assay: MTT cytotoxicity assay, HMLER; type: cell-based; conditions: 72 hr, MTT; read-out: IC50 HMLER
[6] = ANTS/DPX liposome leakage assay, POPC vesicles; type: biochemical; conditions: 0.5 mM vesicles
Experimental: (§5) In brief, 0.5 mM POPC vesicles (grey) or POPC:POPG vesicles (ratio 3:1, black) were incubated with peptide concentrations of 0, 0.02, 0.04, 0.08, 0.16, 0.32, 0.64, 1.25, 2.5, 5, 10, and 20 μM in each A) hydrochloric acid-adjusted phosphate buffered saline (1X, pH 4.8) and B) phosphate buffered saline (1X, pH 7.4).
as §2
(§6) 5 mM ANTS (8-aminonaphthalene-1,3,6-trisulfonic acid, disodium salt) and 12.5 mM DPX (p-xylene-bis-pyridinium bromide) were entrapped in 0.1 μm diameter extruded vesicles with lipids. Gel filtration chromatography using a Sephadex G-100 (GE Healthcare Life Sciences Inc) was used to remove external free ANTS/DPX from LUVs with entrapped contents. LUVs were diluted to 0.5 mM and used to measure the leakage activity by addition of aliquots of peptides. Leakage was measured after 3 h incubation. 10% Triton was used as the positive control to measure the maximum leakage of the vesicle. Fluorescence emission spectra were recorded using excitation and emission wavelength of 350 nm and 510 nm for ANTS/DPX using a BioTek Synergy H1 Hybrid Multi-Mode Reader.
(§7) Table 4 illustrates peptide concentration-induced 50 ANTS/DPX liposome leakage. 0.5 mM POPC and 3POPC/1POPG vesicles were fixed and incubated with titrated peptide concentration (0, 0.02, 0.04, 0.08, 0.16, 0.32, 0.64, 1.25, 2.5, 5, 10, and 20 μM) each in phosphate buffered saline (1X, pH 7.4) and hydrochloric acid-adjusted phosphate buffered saline (1X, pH 4.8). The values are shown as lipid per peptide. IN-terminus is free, C-terminus: —W—NH2.

[7] = tested on: MCF-10A (human breast epithelial cell); assay: cells
Text: HMLER (human mammary endothelial cancer cells), HMLER-shEcad (human mammary endothelial cancer stem cells), and MCF-10A (healthy human mammary endothelial) cells were maintained in Mammary Epithelial Cell Growth Medium (MEGM) with supplements and growth factors: bovine pituitary extract (BPE), hydrocortisone, human epidermal growth factor (hEGF), insulin, and gentamicin/amphotericin-B. HEK293T (human embryonic kidney cell), and U2OS (homo sapiens bone osteosarcoma) cells were maintained in Dulbecco's Modified Eagle's Medium (DMEM) with a final concentration of 10% fetal bovine serum. The cells were grown in T75 flask at 310 K in a humidified atmosphere containing 5% CO2.
The colourimetric MTT (3-(4,5-dimethylthiazol-2-yl)-2,5-diphenyltetrazolium bromide) assay was used to determine the toxicity of the anti-cancer peptides and conventional anti-cancer drugs. 5×10^3 cells were seeded in each well of a 96-well microplate. The cells were incubated overnight. Elevated concentrations of the compounds (0, 0.1, 0.2, 0.4, 0.8, 1.6, 3.1, 6.3, 12.5, 25, 50 and 100 μM) were added and incubated for 72 hr with a total volume 200 μL. The stock solutions of the compounds were prepared as 5 mM solutions in DMSO and diluted using media or in pure water. The final concentration of DMSO in each well was either 0.5% or 0% and this amount was present in the untreated control. After 72 hr, 20 μL of a 4 mg/mL solution of MTT in PBS was added to each well, and the plate was incubated for an additional 4 hr. The MEGM/MTT mixture was aspirated and 100 μL of DMSO was added to dissolve the resulting purple formazan crystals. The absorbance of the solutions in each well was read at 550 nm wavelength. Absorbance values were normalized to either DMSO-containing or non DMSO-containing control wells and plotted as concentration of test compound versus % cell viability. ICso values were interpolated from the resulting dose dependent curves.
The peptides were screened against several different human cell lines and their cytotoxicity were determined. Cell lines utilised include MCF-10A (human breast epithelial cell), HMLER (human breast cancer bulk cell), HMLER-shEcad (human breast cancer stem cell), HEK293T (human embryonic kidney cell), and U2OS (human bone osteosarcoma).

[8] = Tryptophan fluorescent binding assay, 3POPC/1POPG vesicles; conditions: 50 μM peptide, PBS pH 7.4
Experimental: as §1, §2, §3, §4

[9] = ANTS/DPX liposome leakage assay, 3POPC/1POPG vesicles; type: biochemical; conditions: for Peptide Concentration-induced 50% ANTS/DPX leakage at pH 4.8 (L/P) 3POPC/1POPG Vesicle / Peptide Concentration-induced 50% ANTS/DPX leakage at pH 7.4 (L/P) 3POPC/1POPG Vesicle: 0.5 mM vesicles; for liposome leakage activity from anionic vesicle at pH 4.8: compared with zwitterionic vesicle
Experimental: as §5, §2, §6, §7

[10] = read-out: IC50 MCF-10A, 72 hr, MTT

Molecule | IC50 [1] [µM] | IC50 [2] [µM] | IC50 [3] [µM] | Lipid Concentration-induced 50% Peptide Binding (L/P) POPC Vesicle [4] [L/P] | IC50 [5] [µM] | Peptide Concentration-induced 50% ANTS/DPX leakage at pH 4.8 (L/P) POPC Vesicle [6] [L/P] | Peptide Concentration-induced 50% ANTS/DPX leakage at pH 7.4 (L/P) POPC Vesicle [6] [L/P] | IC50 [7] [µM] | Lipid Concentration-induced 50% Peptide Binding (L/P) 3POPC/1POPG Vesicle [8] [L/P] | Peptide Concentration-induced 50% ANTS/DPX leakage at pH 4.8 (L/P) 3POPC/1POPG Vesicle [9] [L/P] | Peptide Concentration-induced 50% ANTS/DPX leakage at pH 7.4 (L/P) 3POPC/1POPG Vesicle [9] [L/P] | liposome leakage activity from anionic vesicle at pH 4.8 [9] | IC50 [7, 10] [µM]
CC(C)C[C@H](NC(=O)CN)C(=O)N[C@@H](CC(C)C)C(=O)N[C@@H](CCC(=O)O)C(=O)N[C@@H](CC(C)C)C(=O)N[C@@H](CC(C)C)C(=O)N[C@@H](CCC(=O)O)C(=O)N[C@@H](CC(C)C)C(=O)N[C@@H](CC(C)C)C(=O)N[C@@H](CC(C)C)C(=O)N[C@@H](Cc1c[nH]cn1)C(=O)N[C@@H](C)C(=O)N[C@@H](C)C(=O)NCC(=O)N[C@@H](Cc1c[nH]c2ccccc12)C(N)=O [EEH] | 19.6 ± 3.96 | 3.6 ± 0.85 | 12.9 ± 0.14 | 0.50 | 3.3 ± 0.14 | 58 | 738 | ≥ 100 | 0.50 | 168 | 755 | relatively higher liposome leakage activity | 
CC(C)C[C@H](NC(=O)CN)C(=O)N[C@@H](CC(C)C)C(=O)N[C@@H](CCC(=O)O)C(=O)N[C@@H](CC(C)C)C(=O)N[C@@H](CC(C)C)C(=O)N[C@@H](Cc1c[nH]cn1)C(=O)N[C@@H](CC(C)C)C(=O)N[C@@H](CC(C)C)C(=O)N[C@@H](CC(C)C)C(=O)N[C@@H](CCC(=O)O)C(=O)N[C@@H](C)C(=O)N[C@@H](C)C(=O)NCC(=O)N[C@@H](Cc1c[nH]c2ccccc12)C(N)=O [EHE] | 18.2 ± 1.06 | 2.55 ± 0.07 | 13 | 0.44 | 3.9 ± 0.28 | 75 | 952 | ≥ 100 | 0.44 | 384 | 706 | relatively higher liposome leakage activity | 
CC(C)C[C@H](NC(=O)CN)C(=O)N[C@@H](CC(C)C)C(=O)N[C@@H](CCCCN)C(=O)N[C@@H](CC(C)C)C(=O)N[C@@H](CC(C)C)C(=O)N[C@@H](CCC(=O)O)C(=O)N[C@@H](CC(C)C)C(=O)N[C@@H](CC(C)C)C(=O)N[C@@H](CC(C)C)C(=O)N[C@@H](CCC(=O)O)C(=O)N[C@@H](C)C(=O)N[C@@H](C)C(=O)NCC(=O)N[C@@H](Cc1c[nH]c2ccccc12)C(N)=O [KEE] | 49.4 ± 13.3 | 2.05 ± 0.21 | 11.1 ± 1.84 | 0.20 | 3.75 ± 0.78 | 97 | 626 | ≥ 100 | 0.20 | 108 | 657 |  | 
GLLDLLELLLEAAG [DEE] | 61 ± 1.41 | 6.05 ± 2.76 | 9.91 ± 0.44 | 0.63 | 5.55 ± 0.35 | 110 | 644 |  | 0.38 | 164 | 597 |  | 8.4 ± 1.56
GLLDLLELLLHAAG [DEH] | 36.5 ± 3.92 | 3.6 ± 0.42 | 10.5 ± 4.67 | 0.75 | 5.35 ± 1.91 | 63 | 620 |  | 1.50 | 193 | 548 |  | 20.2 ± 6.72
GLLDLLHLLLEAAG [DHE] | 17.2 ± 1.06 | 2.8 ± 0.14 | 11.1 ± 1.91 | 1.00 | 3.75 ± 0.92 | 58 | 566 |  | 0.72 | 469 | 581 |  | 22.7 ± 4.31
GLLDLLHLLLKAAG [DHK] | 20.4 ± 2.05 | 1.02 ± 0.12 | 7.3 ± 0.42 | 0.20 | 1.75 ± 0.49 | 47 | 747 |  | 0.38 | 183 | 469 |  | 5.05 ± 1.34
GLLDLLKLLLEAAG [DKE] | 9.93 ± 0.25 | 1.57 ± 0.33 | 7.8 ± 1.41 | 0.56 | 2.1 | 21 | 747 |  | 0.46 | 469 | 411 |  | 4.75 ± 0.49
